In US9006394B2, “Peptide-presenting surfaces for long-term culture of pluripotent cells” (Wisconsin Alumni Research Foundation, priority 2008, dated 2015):
Ends that are not written are not given here.

Tests used:
[1] = tested on: hESCs (H1 and H9); test: hESC culture for 6 days on peptide-AT SAM arrays, Oct-4 and SSEA-4 staining; type: cell-based, human
Experimental: hESCs were passaged to SAMs of peptide-AT conjugates on gold in mTeSR™1 optionally supplemented with 10 ng/ml heregulin-β1 (Peprotech; Rocky Hill, N.J.) and 5 μM Y-27632 (Calbiochem; San Diego, Calif.). […] Some surfaces presented peptide-AT conjugates of only vitronectin GBP (SEQ ID NO:1), fibronectin GBP (SEQ ID NO:2) or bone sialoprotein GBP (SEQ ID NO:3) Alternatively, some surfaces presented peptide-AT conjugates of only the integrin-binding peptide (SEQ ID NO:5), another bioactive peptide derived from fibronectin (SEQ ID NO:6), the FGF receptor binding peptide (SEQ ID NO:4), the laminin-derived bioactive peptide (SEQ ID NO:7), […] (SEQ ID NO: 8) or […] (SEQ ID NO: 9). Furthermore, some surfaces presented separate peptide-AT conjugates of the integrin-binding peptide (SEQ ID NO:5) and FGF receptor binding peptide (SEQ ID NO:4); the integrin-binding peptide (SEQ ID NO:5) and vitronectin GBP (SEQ ID NO:1); the integrin-binding peptide (SEQ ID NO:5) and bioactive peptide derived from fibronectin (SEQ ID NO:6); and the vitronectin GBP (SEQ ID NO:1) and […] (SEQ ID NO: 9). The density of the peptides on the surface varied from 0.5% to 25% (see, FIG. 1).
Images were collected with a Hamamatsu (Bridgewater, N.J.) Digital Camera mounted onto an Olympus IX81 Microscope. […]

[2] = tested on: hES cells (H9 and H13) and vector-free iPS cells (DF19-9); test: Cell growth over two passages (Cell Counting Kit-8); type: cell-based, human
Experimental: hESCs (H9) were cultured on Matrigel, vitronectin, polylysine, […] (SEQ ID NO: 1), or KGRGDS (SEQ ID NO: 5) over two passages in mTeSR media supplemented with 5 μm ROCK inhibitor. Cell counts were calculated at each time point using Cell Counting Kit-8 (Dojindo Molecular Technologies, Inc., Rockville, Md.).

[3] = tested on: human ESCs (H9); test: Cell adhesion (CellTiter-Glo) with soluble heparin or chondroitinase ABC; type: cell-based; conditions: 1 hour
Experimental: To determine the effect of a soluble GAG on hESC binding to GBPs, hESCs were plated onto Matrigel-coated surfaces, vitronectin-coated surfaces, or surfaces presenting the heparin-binding peptide […] (SEQ ID NO: 1) in the presence or absence of soluble heparin (0.5 mg/mL). After 1 hour, the surfaces were washed and the cells lysed. The cell lysates were used to determine approximate cell numbers using Cell Titer Glo (Promega). The ratio of the mean luminescence of the cell lysates of cells plated in the presence of heparin versus those without heparin was expressed as percent cell binding for each surface.
To determine if glycosaminoglycans (GAGs) are required for GBP binding, human ESCs (H9) cultured on Matrigel were dissociated using an enzyme-free, Hanks'-based cell dissociation buffer (Sigma) for 10-15 minutes. Cells were resuspended in DMEM/F12 (Gibco), or DMEM/F12 supplemented with 2 units/mL chondroitinase ABC (Sigma), or 500 ug/mL heparin (Sigma). Cells treated with the GAG-degrading enzymes were incubated for 1 hour in suspension at 37° C. Cell suspensions were seeded onto Matrigel-coated surfaces, recombinant vitronectin-coated surfaces (10 μg/mL, R&D Systems), or SAMs presenting the peptide […] (SEQ ID NO: 1) at a 5% surface density. After 1 hour, surfaces were washed 3 times with PBS and the cells were lysed with M-PER buffer (Thermo Fisher Scientific, Inc., Rockford, Ill.). The cell lysate was mixed with CellTiter-Glo (Promega) to determine the number of viable cells in culture based on the presence of ATP. The luminescence was measured on 20/20^n luminometer (Turner Biosystems, Inc., Sunnyvale Calif.). • Cell Growth: […]

[4] = tested on: hESCs; test: Embryoid body differentiation after long-term culture, germ layer marker staining; type: cell-based, human; conditions: 3 months on surface, then 2 weeks EB suspension culture
Description: Images were collected with a Hamamatsu (Bridgewater, N.J.) Digital Camera mounted onto an Olympus IX81 Microscope. Primary antibodies used were as follows: Oct-4 (1:400; R&D Systems; Minneapolis, Minn.), SSEA-4 (1:400; Santa Cruz Biotechnology; Santa Cruz, Calif.), β-III tubulin (1:3000; R&D Systems), nestin (1:3000), α-fetoprotein (1:250; Sigma), FoxA2 (1:100; R&D Systems), α-smooth muscle actin (1:1000; Sigma), and fatty acid binding protein 4 (1:250; R&D Systems). Cells were fixed with PBS containing 4% formaldehyde and 0.15% picric acid for 20 minutes at 37° C. and then permeabilized and blocked with PBS containing 0.1% Triton X-100 and 0.1% bovine serum albumin (BSA). All antibodies were incubated in blocking buffer overnight at 4° C., except for the antibodies against β-III tubulin, nestin and α-smooth muscle actin, which were incubated for 1 hour at room temperature. Secondary staining was performed with Alexa Fluor® 488- and/or 594-conjugated antibodies (1:1000; Invitrogen) diluted in blocking buffer and incubated for 1 hour at room temperature. Cells were counterstained with 4′,6-diamidino-2-phenylindole, dilactate (DAPI; Invitrogen). Image overlays were generated using ImageJ (ImageJ is a public domain Java image processing program available on the World Wide Web). Peptide array mosaics were generated using the AnalySIS Acquisition Software (Olympus).

Sequence: GKKQRFRHRNRKG (not fully specified (C-terminus); listed as Homo sapiens)
- cell attachment and self-renewal, presence of Oct-4 and SSEA-4 after 6 days [1]: best supported both cell attachment and self-renewal
- plating efficiency after 24 hours ([2]; 24 hours): equivalent
- cell numbers after each passage ([2]; two passages, mTeSR with ROCK inhibitor): Increased cell numbers
- adhesion of cells treated with chondroitinase ABC ([3]; 2 units/mL chondroitinase ABC, 5% surface density): decreased adhesion
- hESC binding in the presence of soluble heparin ([3]; soluble heparin 0.5 mg/mL): abrogate hESC binding
- ectoderm derivatives: staining for β-III tubulin and nestin [4]: stained positive
- endoderm derivatives: staining for α-fetoprotein and FoxA2 [4]: stained positive
- mesoderm derivatives: staining for fatty acid binding protein 4 and α-smooth muscle actin [4]: stained positive
